This passage reports IC50 and inhibition results from patent US4599336A, “Derivatives of (E)-3-(4-oxo-4H-quinazolin-3-yl)-2-propenamide” (Hoffmann-La Roche Inc., priority 1983, dated 1986).

The assay deals with T1, Δ^5 -Lipoxygenase (Rattus norvegicus, UniProt P12527).
T1 construct: using rat basophil leukemia cells (RBL-1 cells) as the enzyme source; endogenous in cells; host or cells: RBL-1 (rat basophil leukemia) cells, 49,300×g supernatant of homogenate
T1 sequence (P12527 1-673): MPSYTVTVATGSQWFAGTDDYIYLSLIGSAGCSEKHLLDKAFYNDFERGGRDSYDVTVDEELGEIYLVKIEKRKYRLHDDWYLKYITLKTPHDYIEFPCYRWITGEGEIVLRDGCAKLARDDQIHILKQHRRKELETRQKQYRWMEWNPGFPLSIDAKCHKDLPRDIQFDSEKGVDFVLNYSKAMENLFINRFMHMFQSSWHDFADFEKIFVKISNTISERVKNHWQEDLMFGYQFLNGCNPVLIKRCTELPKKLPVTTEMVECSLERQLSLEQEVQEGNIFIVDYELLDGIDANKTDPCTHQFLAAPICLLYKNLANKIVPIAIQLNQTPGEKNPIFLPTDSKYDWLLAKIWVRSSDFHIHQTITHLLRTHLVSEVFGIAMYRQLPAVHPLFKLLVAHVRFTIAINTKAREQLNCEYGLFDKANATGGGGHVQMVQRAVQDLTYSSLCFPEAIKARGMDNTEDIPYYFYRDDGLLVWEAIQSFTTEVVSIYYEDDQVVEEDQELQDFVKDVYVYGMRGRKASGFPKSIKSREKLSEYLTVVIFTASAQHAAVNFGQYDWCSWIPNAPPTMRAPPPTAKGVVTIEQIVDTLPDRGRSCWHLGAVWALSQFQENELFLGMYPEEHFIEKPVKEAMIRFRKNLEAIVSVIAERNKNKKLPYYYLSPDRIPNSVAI
The experiment in a line: Δ^5 -Lipoxygenase Inhibition. The class given is biochemical. The settings on record: RBL-1 cell supernatant; for inhibition at 10 µM: at 10^-5 M. The protocol: Δ^5 -Lipoxygenase inhibition was measured by following the conversion of ^14 C-arachidonic acid to ^14 C-5-HETE, using rat basophil leukemia cells (RBL-1 cells) as the enzyme source. These cells were maintained in stationary stock cultures and grown in spinner cultures prior to isolation by centrifugation at 4° C. at 1,500×g for 10 minutes. The cells were washed three times at 4° C. with 0.05M Tris HCl (ph 7.2) containing 1 mM EDTA, 14 μM indomethacin and 0.9% NaCl. They were then homogenized at 0°-4° C. using a glass/glass homogenizer in 0.05M Tris-HCl (pH 7.2) containing 1 mM EDTA and 14 μM indomethacin. The homogenate was then centrifuged at 49,300×g for 20 minutes (0°-4° C.) and the resulting supernatant frozen in small aliquots in a dry ice/acetone bath prior to storage at -80° C. Under these conditions, the enzyme was stable to freezing and thawing and to preincubation for 10 minutes at 30° C.
For enzyme assay, 100-200 μl of enzyme was incubated in the presence and absence of test compound (prepared in DMSO) for 10 minutes at 30° C. in 0.05M Tris-HCl buffer (pH 7.2) containing 1 mM glutathione, 2 mM CaCl2, 14 μM indomethacin and 0.25 and 0.5 mM EDTA (final volume 400 μl). The final DMSO concentration in these assays was 4%. The assay was initiated by the addition of 100 μl ^14 C-arachidonic acid (58 mCi/mmole) and incubations were carried out for 10 minutes at 37° C. in a shaking water bath. The reactions were stopped by the simultaneous addition of 4.0 ml of diethylether and 100 μl of 1.0 m citric acid, while the tubes were vigorously vortexed. The ^14 C-5-HETE generated by the enzyme was extracted into the acidified ether layer which was separated from the aqueous layer by freezing the assay tubes in a dry ice/acetone bath prior to decanting the liquid ether layer. The ether layer was evaporated to dryness under N2, the residue dissolved in 65 μl chloroform:methanol (2:1 v/v), prior to separating ^14 C-5-HETE from other ^14 C-labeled compounds on silica gel impregnated glass fiber TLC plates utilizing an elution solvent of isoctane:methylethylketone:acetic acid (100:9:1 v/v). ^14 C-5-HETE was identified by its co-chromatography with a chemically synthesized standard. The radioactive peaks of the chromatogram were cut out and the radioactivity was quantitated by liquid scintillation counting. The amount of 5-HETE obtained per sample was expressed as the percent of total and was calculated in the basis of: [formula] in order to evaluate the effect of the test compounds, the mean percent inhibition of ^14 C-5-HETE production was calculated. The IC50 for a drug was determined from a linear regression analysis of a plot of the mean percent inhibition vs drug concentration.

Compound `CC(C)c1ccc2ncn(/C=C/C(=O)NCCCCc3ccccn3)c(=O)c2c1` [drawing 17] gave an IC50 of 800 nM and an inhibition at 10 µM of 100%.
Regarding `CC(C)c1ccc2ncn(/C=C/C(=O)NCCCCn3ccnc3)c(=O)c2c1` [drawing 15], the inhibition at 10 µM was 0%.
In the case of `CC(C)c1ccc2ncn(/C=C/C(=O)NCCCCc3cccnc3)c(=O)c2c1` [drawing 12], the inhibition at 10 µM turned out to be 84%. This compound also yielded an inhibition at 1 µM (at 10^-6 M) of 27%.

Broadly, the IC50 is the concentration that gives 50% inhibition. A low value points to greater potency. As usually defined, the inhibition is the percentage by which the read-out fell short of the control. Lower therefore signals a response near the control.
